Measurements reported in US12540164B2, “Peptides for treatment and prevention of nonalcoholic fatty liver disease and fibrosis” (UNIVERSITE DE STRASBOURG, priority 2017, dated 2026).
“Also recorded” adds a separate entry of the source. Ends that are not written are not given here.

Experiments:
[1] = test system: AST (aspartate aminotransferase); assay: Plasma AST ELISA; format: in vivo, mice; conditions: 3 months after a single subcutaneous peptide injection, n=4
Description: (§1) Mice presented were euthanized and their plasma and organs were sampled for analysis. […] Cryosection of the livers were then stained with Adipored and DAPI to detect the level of lipid droplets. […] Hepatic function is assessed by two liver related strong biomarkers namely (AST (Aspartate Aminotransferase) and ALT (Alanine Aminotransferase)), whose levels increase proportionately with liver damage.
(§2) Plasma samples from the indicated mice were used to determine plasma content of either AST (aspartate aminotransferase) or […] (alanine aminotransferase) both robust indicators of liver damage were measured using commercially purchased ELISA kits. These parameters were determined according to manufacturer's procedure. • SEB214Mu (96 Tests): Enzyme-linked Immunosorbent Assay Kit For Aspartate Aminotransferase (AST), Cloud Clone Corp. • SEA207Mu (96 Tests): Enzyme-linked Immunosorbent Assay Kit For Alanine Aminotransferase (ALT), Cloud Clone Corp.

[2] = test system: ALT (alanine aminotransferase); assay: Plasma ALT ELISA; format: in vivo, mice; conditions: 3 months after a single subcutaneous peptide injection, n=4
Description: as §1, §2

[3] = Glucose tolerance test (GTT) in diet induced obese mice; format: in vivo; conditions: fasting male DIO mice, single injection at day 0; subcutaneous glucose bolus; AUC D-5 vs D+6
Description: These are results obtained from series of glucose tolerance test (GTT) and data from two-time points namely 30 minutes and 120 minutes were used to generate these curves for both control and PATAD treated diet induced obese (DIO) and diabetic wild type male C57/B6 mice (control).
For this study, mice were on a C57/BL6 genetic background. All animals were housed in a temperature and humidity controlled facility, with a 12 h-light/12 h-dark cycle fed during the whole phase mice will be fed with a 60% high fat diet from Research Diets (D12492), and tap water will be provided ad libitum. Mice were fed and tested regularly for glucose tolerance test for their glucose tolerance and once they were glucose intolerant they were used for treatment.

[4] = test system: FABP4; assay: FABP4 ELISA on liver extracts; format: in vivo; conditions: 3 months after single injection, DIO male mice
Excerpt: LOXL2 is the enzyme promoting the development of fibrotic lesions by favoring the polymerization of collagen and FABP4 is a protein involved in lipid metabolism whose level increases with increasing lipid deposition in the liver.
For the measurements on the liver extracts, the same kit for LOXL2 was used and for FABP4, the commercial kit used was the Elisa kit for Fatty Acid Binding Protein 4, Adipocyte (FABP4), SEB693Mu, Cloud Clone Corp.

[5] = test system: ceramides; assay: Hepatic ceramides content and profile (lipidomics); format: in vivo, mice; conditions: 3 injections, one per week, in subcutaneous adipose tissue
Excerpt: ADPIF adipose tissue injection has proven to be unexpectedly liver protective relative to a specific decrease in expression levels of FATP2 in the adipose tissue and an associated profile of the FATPs and FFARs in the muscles and liver. As these changes impact circulating population of the different lipids. Ceramides are a group of biological active lipids known to be involved in NAFLD. We measured and determined the effect of ADPIF injections on the ceramides profile following 3 injections of ADPIF at a frequency of one injection per week in the subcutaneous adipose tissue.
For the lipid composition in the different tissues and plasma, all samples were flashed frozen at the time of sampling, immediately after sacrifice, and were sent to the lipidomic core facility of Dijon, (Plateforme de Lipidomique-uBorgogne INSERM UMR866/Labex LipSTIC).

[6] = test system: fibrotic depots in the liver; assay: Transmitted electron microscopy of liver sections for fibrotic depots; format: in vivo; conditions: DIO-NASH mice, 3 months after injection in subcutaneous adipose tissue
Description: For the electron microscopy imaging on the liver extracts, the samples were immersed in glutaraldehyde (2.5%) and paraformaldehyde (2.5%) in cacodylate buffer (0.1 M, pH 7.4). The samples were post-fixed in 1% osmium tetroxide, dehydrated through graded alcohol (50, 70, 90, and 100%) and propylene oxide for 30 minutes each, and embedded in Epon 812. Semithin sections were cut at 2 μm on an ultra microtome (Leica Ultracut UCT) and ultrathin sections were cut at 70 nm and contrasted with uranyl acetate and lead citrate and examined at 70 kv with a Morgagni 268D electron microscope. Images were captured digitally by Mega View III camera (Soft Imaging System).

With “VECTTREKEVLASLDKAAFLTQLHS (not fully specified (bridges)) [ADPIF, R and S carry the stapling, preferably 2-(7-octenyl)arginine and 2-(4-pentenyl)serine]” the “circulating levels of AST” value [1] was “dramatic decrease; also recorded: effective in reducing”, the “circulating levels of ALT” value [2] was “dramatic decrease; also recorded: more active in reducing circulating levels of ALT” and the “glucose tolerance test / prevention of hyperglycemia” value [3] was “better effect in glucose tolerance test than the PATAD peptide; also recorded: more active than PATAD peptide in preventing hyperglycemia”. The “hepatic protein content of FABP4” value [4] was “more potent than PATAD; also recorded: significantly reduced”, the hepatic ceramides content [5] was “globally induces a decrease” and the “fibrotic depots / lesions in liver by transmitted electron microscopy” value [6] was “no longer detected; also recorded: No such fibrotic depots were found”.
